Test results as given in patent US20150353495A1 (PORTOLA PHARMACEUTICALS, INC., priority 2010, published 2015).
pIC50: −log10 of the molar value.

Experiments:
Type in all cases: biochemical
[1] = target: T1, JAK3 (Homo sapiens, UniProt P52333); assay: Z'-LYTE kinase assay JAK3
T1 construct: 5 μl of catalytic domain recombinant Kinase enzyme+Tyr peptide substrate (Invitrogen, CA); purchased Invitrogen
Outline: (§1)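 Z′-LYTE FRET, Tyr6 peptide, recombinant catalytic domain + ATP, 1 h RT, 1% DMSO final, duplicates; protease development 1 h RT; fluorescence read.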

[2] = target: T2, JAK2 (Homo sapiens, UniProt O60674); assay: Z'-LYTE kinase assay JAK2
T2 construct: 5 μl of catalytic domain recombinant Kinase enzyme+Tyr peptide substrate (Invitrogen, CA); purchased Invitrogen
Outline: as §1

[3] = target: T3, JAK1 (Homo sapiens, UniProt P23458); assay: Z'-LYTE kinase assay JAK1
T3 construct: 5 μl of catalytic domain recombinant Kinase enzyme+Tyr peptide substrate (Invitrogen, CA); purchased Invitrogen
Outline: as §1

T1 sequence (P52333 822-1111 limits assumed): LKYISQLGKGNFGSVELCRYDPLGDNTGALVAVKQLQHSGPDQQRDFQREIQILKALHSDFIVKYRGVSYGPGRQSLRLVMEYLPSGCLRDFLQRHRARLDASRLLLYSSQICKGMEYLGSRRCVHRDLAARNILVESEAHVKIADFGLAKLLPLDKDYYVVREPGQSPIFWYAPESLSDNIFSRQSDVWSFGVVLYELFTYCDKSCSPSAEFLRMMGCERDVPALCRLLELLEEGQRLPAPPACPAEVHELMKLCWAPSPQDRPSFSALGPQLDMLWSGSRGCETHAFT
T3 sequence (P23458 875-1153 limits assumed): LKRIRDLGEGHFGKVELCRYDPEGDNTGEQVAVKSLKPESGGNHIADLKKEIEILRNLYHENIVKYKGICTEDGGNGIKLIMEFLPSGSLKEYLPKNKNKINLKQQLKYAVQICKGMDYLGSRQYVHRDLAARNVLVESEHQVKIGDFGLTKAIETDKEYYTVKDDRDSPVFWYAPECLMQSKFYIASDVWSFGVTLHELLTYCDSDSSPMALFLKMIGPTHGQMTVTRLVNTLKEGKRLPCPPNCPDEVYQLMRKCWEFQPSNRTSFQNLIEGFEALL
T2 sequence (O60674 849-1124 limits assumed): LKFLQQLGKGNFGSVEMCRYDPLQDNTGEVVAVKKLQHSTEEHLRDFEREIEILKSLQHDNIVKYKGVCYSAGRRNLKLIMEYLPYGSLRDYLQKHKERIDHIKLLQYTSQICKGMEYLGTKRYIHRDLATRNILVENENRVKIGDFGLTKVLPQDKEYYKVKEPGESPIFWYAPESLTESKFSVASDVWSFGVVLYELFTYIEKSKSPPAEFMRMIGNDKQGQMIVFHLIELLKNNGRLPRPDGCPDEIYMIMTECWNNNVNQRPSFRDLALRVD

SMILES | pIC50 [1] | pIC50 [2] | pIC50 [3]
NC(=O)c1cnc(Nc2ccc(C3CNC3)cc2)cc1NCc1ccccc1 [Example 325, 6-(4-(azetidin-3-yl)phenylamino)-4-(benzylamino)nicotinamide] | 8.00 to 9.00 | 6.00 to 7.00 | < 6.00
CN(C)C(=O)C1CN(c2ccc(Nc3cc(NCc4ccccc4)c(C(N)=O)cn3)cc2F)C1 [Example 342, 4-(benzylamino)-6-(4-(3-(dimethylcarbamoyl)azetidin-1-yl)-3-fluorophenylamino)nicotinamide] | 8.00 to 9.00 | 6.00 to 7.00 | 6.00 to 7.00
CCC(=O)N1CCC(c2ccc(Nc3cc(NC4(c5ccccc5)CC4)c(C(N)=O)cn3)cc2)CC1 [Example 375, 4-(1-phenylcyclopropylamino)-6-(4-(1-propionylpiperidin-4-yl)phenylamino)nicotinamide] | 7.00 to 8.00 | < 6.00 | < 6.00
COC[C@@H](Nc1cc(Nc2ccc(C(=O)N3CCC3)cc2)ncc1C(N)=O)c1ccccc1 [Example 264, (S)-6-(4-(azetidine-1-carbonyl)phenylamino)-4-(2-methoxy-1-phenylethylamino)nicotinamide] | 7.00 to 8.00 | 6.00 to 7.00 | 6.00 to 7.00
NC(=O)c1cnc(Nc2ccc(-n3cccn3)nc2)cc1NCc1ccccc1 [Example 278, 6-(6-(1H-pyrazol-1-yl)pyridin-3-ylamino)-4-(benzylamino)nicotinamide] | 6.00 to 7.00 | < 6.00 | < 6.00
COCC(=O)N1CCC[C@H](CNc2cc(Nc3ccc(C(=O)N4CCCC4)cc3)ncc2C(N)=O)C1 [Example 267, (R)-4-((1-(2-methoxyacetyl)piperidin-3-yl)methylamino)-6-(4-(pyrrolidine-1-carbonyl)phenylamino)nicotinamide] | 7.00 to 8.00 | 6.00 to 7.00 | < 6.00
CCC(=O)N(C)c1ccc(Nc2cc(NCc3cccc4cc[nH]c34)c(C(N)=O)cn2)cc1 [Example 477, 4-((1H-indol-7-yl)methylamino)-6-(4-(N-methylpropionamido)phenylamino)nicotinamide] | 7.00 to 8.00 | 6.00 to 7.00 | < 6.00
COc1ccc(Nc2cc(NC[C@H]3CCCN(C(=O)N4CCCC4)C3)c(C(N)=O)cn2)cc1 [Example 290, (R)-6-(4-methoxyphenylamino)-4-((1-(pyrrolidine-1-carbonyl)piperidin-3-yl)methylamino)nicotinamide] | 6.00 to 7.00 | < 6.00 | < 6.00
CCC(=O)N1CCC(c2ccc(Nc3cc(NCc4cccc(-c5cccnc5)c4)c(C(N)=O)cn3)cc2)CC1 [Example 416, 6-(4-(1-propionylpiperidin-4-yl)phenylamino)-4-(3-(pyridine-3-yl)benzylamino)nicotinamide] | 8.00 to 9.00 | < 6.00 | < 6.00
CCC(=O)N1CC(c2ccc(Nc3cc(NCc4cccc5[nH]ccc45)c(C(N)=O)cn3)cc2)C1 [Example 492, 4-((1H-indol-4-yl)methylamino)-6-(4-(1-propionylazetidin-3-yl)phenylamino)nicotinamide] | 8.00 to 9.00 | 8.00 to 9.00 | 7.00 to 8.00
NC(=O)c1cnc(Nc2cccc(OCC(=O)N3CCOCC3)c2)cc1NC1(c2ccccc2)CC1 [Example 134, 6-(3-(2-morpholino-2-oxoethoxy)phenylamino)-4-(1-phenylcyclopropylamino)nicotinamide] | 7.00 to 8.00 | < 6.00 | < 6.00
CCC(=O)N1CCN(c2ccc(Nc3cc(NC4(c5ccccc5)CC4)c(C(N)=O)cn3)cc2)CC1 [Example 124, 4-(1-phenylcyclopropylamino)-6-(4-(4-propionylpiperazin-1-yl)phenylamino)nicotinamide] | 7.00 to 8.00 | 6.00 to 7.00 | < 6.00
NC(=O)c1cnc(Nc2ccc(S(=O)(=O)N3CCC3)cc2)cc1NCC1CCCC1 [Example 49, 6-(4-(azetidin-1-ylsulfonyl)phenylamino)-4-(cyclopentylmethylamino)nicotinamide] | 6.00 to 7.00 | < 6.00 | < 6.00
CCC(=O)N(C)c1ccc(Nc2cc(NCc3cncc(F)c3)c(C(N)=O)cn2)cc1 [Example 480, 4-((5-fluoropyridin-3-yl)methylamino)-6-(4-(N-methylpropionamido)phenylamino)nicotinamide] | 7.00 to 8.00 | 6.00 to 7.00 | < 6.00
NC(=O)c1cnc(Nc2cccc(Cl)c2)cc1NCc1cncc(F)c1 [Example 307, 6-(3-chlorophenylamino)-4-((5-fluoropyridin-3-yl)methylamino)nicotinamide] | 7.00 to 8.00 | 6.00 to 7.00 | < 6.00
NC(=O)c1cnc(Nc2ccc(C3CCOCC3)cc2)cc1NCc1ccccc1F [Example 142, 4-(2-fluorobenzylamino)-6-(4-(tetrahydro-2H-pyran-4-yl)phenylamino)nicotinamide] | 7.00 to 8.00 | 6.00 to 7.00 | < 6.00

SMILES | pIC50 [1] | pIC50 [2] | pIC50 [3]
CN(C)C(=O)NCc1ccc(Nc2cc(NCc3cccc4ccsc34)c(C(N)=O)cn2)cc1 [Example 354, 4-(benzo[b]thiophen-7-ylmethylamino)-6-(4-((3,3-dimethylureido)methyl)phenylamino)nicotinamide] | 8.00 to 9.00 | 7.00 to 8.00 | 6.00 to 7.00
CCC(=O)N1CCC(c2ccc(Nc3cc(NCc4c(F)cccc4F)c(C(N)=O)cn3)cc2)CC1 [Example 203, 4-(2,6-difluorobenzylamino)-6-(4-(1-propionylpiperidin-4-yl)phenylamino)nicotinamide] | 8.00 to 9.00 | 7.00 to 8.00 | 6.00 to 7.00
CN(C)S(=O)(=O)c1ccc(Nc2cc(NCc3cc(F)ccc3F)c(C(N)=O)cn2)cc1 [Example 98, 4-(2,5-difluorobenzylamino)-6-(4-(N,N-dimethylsulfamoyl)phenylamino)nicotinamide] | 7.00 to 8.00 | 6.00 to 7.00 | < 6.00
CCC(=O)N1CCC(c2ccc(Nc3cc(N[C@H](C)C4CC4)c(C(N)=O)cn3)cc2)CC1 [Example 202, (R)-4-(1-cyclopropylethylamino)-6-(4-(1-propionylpiperidin-4-yl)phenylamino)nicotinamide] | 7.00 to 8.00 | 6.00 to 7.00 | 6.00 to 7.00
NC(=O)c1cnc(Nc2cccc(CN3CCOCC3)c2)cc1NC1(c2ccccc2)CC1 [Example 129, 6-(3-(morpholinomethyl)phenylamino)-4-(1-phenylcyclopropylamino)nicotinamide] | 7.00 to 8.00 | 6.00 to 7.00 | < 6.00
CC(=O)NCc1ccc(Nc2cc(NCc3cccc4ccsc34)c(C(N)=O)cn2)cc1 [Example 352, 6-(4-(acetamidomethyl)phenylamino)-4-(benzo[b]thiophen-7-ylmethylamino)nicotinamide] | 8.00 to 9.00 | 7.00 to 8.00 | 7.00 to 8.00
NC(=O)c1cnc(Nc2ccc(C3CCOCC3)cc2)cc1NCC1CCCC1 [Example 154, 4-(cyclopentylmethylamino)-6-(4-(tetrahydro-2H-pyran-4-yl)phenylamino)nicotinamide] | 7.00 to 8.00 | 6.00 to 7.00 | < 6.00
COC[C@@H](Nc1cc(Nc2ccc(OC)cc2)ncc1C(N)=O)c1ccccc1 [Example 260, (S)-4-(2-methoxy-1-phenylethylamino)-6-(4-methoxyphenylamino)nicotinamide] | 7.00 to 8.00 | < 6.00 | < 6.00
NC(=O)c1cnc(Nc2ccc(C3CCOCC3)cc2)cc1NCc1cn(CCN2CCCCC2)nn1 [Example 201, 4-((1-(2-(piperidin-1-yl)ethyl)-1H-1,2,3-triazol-4-yl)methylamino)-6-(4-(tetrahydro-2H-pyran-4-yl)phenylamino)nicotinamide] | < 6.00 | < 6.00 | < 6.00
CN(C)C(=O)C1CCN(c2ccc(Nc3cc(NCc4cccc5sccc45)c(C(N)=O)cn3)cc2)CC1 [Example 344, 4-(benzo[b]thiophen-4-ylmethylamino)-6-(4-(4-(dimethylcarbamoyl)piperidin-1-yl)phenylamino)nicotinamide] | 8.00 to 9.00 | 7.00 to 8.00 | 6.00 to 7.00
COc1cc(Nc2cc(NCc3ccccc3)c(C(N)=O)cn2)cc(OC)c1OC [Example 280, 4-(benzylamino)-6-(3,4,5-trimethoxyphenylamino)nicotinamide] | 7.00 to 8.00 | 6.00 to 7.00 | < 6.00
CN(C)S(=O)(=O)c1ccc(Nc2cc(NCC3CCCC3)c(C(N)=O)cn2)cc1 [Example 97, 4-(cyclopentylmethylamino)-6-(4-(N,N-dimethylsulfamoyl)phenylamino)nicotinamide] | 6.00 to 7.00 | < 6.00 | < 6.00
NC(=O)c1cnc(Nc2ccc(C3CCN(CCF)CC3)cc2)cc1NCc1cccc(F)c1F [Example 217, 4-(2,3-difluorobenzylamino)-6-(4-(1-(2-fluoroethyl)piperidin-4-yl)phenylamino)nicotinamide] | 8.00 to 9.00 | 7.00 to 8.00 | 6.00 to 7.00
NC(=O)c1cnc(Nc2cccc(C(=O)N3CCC3)c2)cc1NCc1cc(F)ccc1F [Example 99, 6-(3-(azetidine-1-carbonyl)phenylamino)-4-(2,5-difluorobenzylamino)nicotinamide] | 8.00 to 9.00 | 6.00 to 7.00 | 6.00 to 7.00
NC(=O)c1cnc(Nc2ccc(OC(F)F)cc2)cc1NCc1cncc(F)c1 [Example 309, 6-(4-(difluoromethoxy)phenylamino)-4-((5-fluoropyridin-3-yl)methylamino)nicotinamide] | 7.00 to 8.00 | 6.00 to 7.00 | < 6.00
CC(C)CNc1cc(Nc2ccc(C3CCOCC3)cc2)ncc1C(N)=O [Example 156, 4-(isobutylamino)-6-(4-(tetrahydro-2H-pyran-4-yl)phenylamino)nicotinamide] | 6.00 to 7.00 | 6.00 to 7.00 | 6.00 to 7.00
